This note sets out measurements from patent publication US9611230B2, “1,3,4-oxadiazole benzoic acid compounds and their use for nonsense suppression and the treatment of disease” (PTC Therapeutics, Inc., priority 2004, dated 2017).

Compound `CN(C)c1cccc(-c2nnc(-c3ccccc3C(=O)O)o2)c1` [Compound 609] returned a melting point of 71 to 78 °C.
The result for `CN(C)c1ccccc1-c1nnc(-c2ccccc2C(=O)O)o1` [Compound 610] reads 180 to 183 °C; that for `O=C(O)c1cccc(-c2nnc(-c3ccccc3)o2)c1` [Compound 615], 190 to 192 °C.
The result for `CC(C)c1cccc(-c2nnc(-c3cccc(C(=O)O)c3)o2)c1` [Compound 620] reads 190 to 192 °C; that for `CC(C)(C)C1CCC(c2nnc(-c3ccc(C(=O)O)cc3)o2)CC1` (centres unmarked) [Compound 621], 258 to 261 °C.
On to `CC(C)(C)C1CCC(c2nnc(-c3cccc(C(=O)O)c3)o2)CC1` (centres unmarked) [Compound 622], for which the melting point was 245 to 247 °C.
The result for `CN(C)c1ccc(-c2nnc(-c3cccc(C(=O)[O-])c3)o2)cc1.[Na+]` [Compound 624] reads 227 to 235 °C (dec.); that for `CC(C)c1ccc(-c2nnc(-c3cccc(C(=O)[O-])c3)o2)cc1.[Na+]` [Compound 626], 200 to 205 °C (dec.); that for `CC(C)c1cccc(-c2nnc(-c3ccc(C(=O)[O-])cc3)o2)c1.[Na+]` [Compound 628], over 300 °C.
The result for `O=C(O)c1ccc(-c2ncc(-c3cc(F)ccc3F)o2)cc1` [Compound 630] reads 301 to 302 °C; that for `O=C(O)c1ccc(-c2ncc(-c3ccc4c(c3)OCCO4)o2)cc1` [Compound 631], 308 to 309 °C.
The result for `Cc1cccc(-c2cnc(-c3ccc(C(=O)O)cc3)o2)c1` [Compound 632] reads 248 to 249 °C.
Take `CCc1ccc(-c2cnc(-c3ccc(C(=O)O)cc3)o2)cc1` [Compound 634]: the melting point lay within 233 to 234 °C.
The result for `CC(C)c1ccc(-c2cnc(-c3ccc(C(=O)O)cc3)o2)cc1` [Compound 635] reads 233 to 234 °C; that for `CC(C)(C)c1ccc(-c2cnc(-c3ccc(C(=O)O)cc3)o2)cc1` [Compound 636], 258 to 259 °C.
The result for `COc1ccc(-c2cnc(-c3ccc(C(=O)O)cc3)o2)cc1` [Compound 637] reads 249 to 251 °C.
The result for `CCOc1ccc(-c2cnc(-c3ccc(C(=O)O)cc3)o2)cc1` [Compound 638] reads 245 to 246 °C; that for `O=C(O)c1ccc(-c2ncc(-c3ccc(Cl)cc3)o2)cc1` [Compound 639], 260 to 263 °C.
With `O=C(O)c1ccc(-c2ncc(-c3ccc(F)c(F)c3)o2)cc1` [Compound 640], the melting point is 291 to 292 °C.
Compound `O=C(O)c1ccc(-c2ncc(-c3cc(F)cc(F)c3)o2)cc1` [Compound 641] showed a melting point of 273 to 274 °C.
The result for `O=C(O)c1ccc(-c2ncc(-c3ccc(Br)cc3)o2)cc1` [Compound 642] reads 259 to 261 °C; that for `Cc1ccccc1-c1cnc(-c2ccc(C(=O)O)cc2)o1` [Compound 643], 284 to 286 °C; that for `CC(C)c1cccc(-c2cnc(-c3ccc(C(=O)O)cc3)o2)c1` [Compound 644], 236 to 237 °C.
The result for `COc1ccccc1-c1cnc(-c2ccc(C(=O)O)cc2)o1` [Compound 645] reads 305 to 306 °C; that for `O=C(O)c1ccc(-c2ncc(-c3cccc(OCc4ccccc4)c3)o2)cc1` [Compound 646], 210 to 211 °C.
The result for `O=C(O)c1ccc(-c2ncc(-c3ccc(Oc4ccccc4)cc3)o2)cc1` [Compound 647] reads 220 to 222 °C; that for `O=C(O)c1ccc(-c2ncc(-c3cccc(O)c3)o2)cc1` [Compound 648], 291 to 292 °C.
Turning to `O=C(O)c1ccc(-c2ncc(-c3ccc(F)c(Cl)c3)o2)cc1` [Compound 649], the melting point lay in the range of 295 to 297 °C.
The result for `O=C(O)Cc1ccc(-c2ncc(-c3ccc(F)cc3F)o2)cc1` [Compound 650] reads 191 to 193 °C.
In turn, `O=C(O)c1ccc(-c2ncc(C#Cc3ccccc3)o2)cc1` [Compound 651] gave a melting point of 251 to 253 °C.
The result for `CC(C)c1ccc(NC(=O)Nc2cccc(-c3nnc(-c4ccc(C(=O)O)cc4)o3)c2)cc1` [Compound No. 60, 4-(5-{3-[3-(4-isopropylphenyl)ureido]phenyl}-[1,3,4]oxadiazol-2-yl)benzoic acid] reads over 270 °C.
The result for `O=C(O)c1cccc(-c2nnc(-c3ccc(N4CCOCC4)cc3)o2)c1` [Compound No. 82, 3-[5-(4-morpholin-4-yl-phenyl)-[1,3,4]oxadiazol-2-yl]benzoic acid] reads 235 to 237 °C; that for `CC(C)c1ccc(-c2noc(-c3ccc(C(=O)O)cc3)n2)cc1` [Compound No. 140, 4-[3-(4-isopropylphenyl)-1,2,4-oxadiazol-5-yl]benzoic acid], 253 to 255 °C; that for `CC(C)c1ccc(-c2nc(-c3ccc(C(=O)O)cc3)no2)cc1` [Compound No. 275, 4-[5-(4-isopropylphenyl)-[1,2,4]oxadiazol-3-yl]benzoic acid], 210 to 213 °C.
The result for `CC(C)c1ccc(-c2cnc(-c3cccc(C(=O)O)c3)[nH]2)cc1` [Compound No. 277, 3-[5-(4-isopropylphenyl)-1H-imidazol-2-yl]benzoic acid] reads 296 to 298 °C.
With `Cc1cccc(-c2ccc(-c3nnc(-c4cccc(C(=O)O)c4)o3)cc2)c1` [Compound No. 281, 3-[5-(3′-methylbiphenyl-4-yl)-[1,3,4]oxadiazol-2-yl]benzoic acid], the melting point lay within 240 to 242 °C.
The result for `CC(C)c1ccc(-c2cnc(-c3cccc(C(=O)O)c3)o2)cc1` [Compound No. 288, 3-[5-(4-isopropylphenyl)-oxazol-2-yl]benzoic acid] reads 150 to 153 °C; that for `CC(C)c1ccc(-c2csc(-c3cccc(C(=O)O)c3)n2)cc1` [Compound No. 289, 3-[4-(4-isopropylphenyl)thiazol-2-yl]-benzoic acid], 206 to 208 °C; that for `CC(C)c1ccc(-c2cnc(-c3cccc(C(=O)O)c3)s2)cc1` [Compound No. 310, 3-[5-(4-Isopropyl-phenyl)thiazol-2-yl]benzoic acid], 218 to 220 °C.
The result for `CC(C)c1ccc(-c2ncc(-c3cccc(C(=O)O)c3)[nH]2)cc1` [Compound No. 311, 3-[2-(4-isopropylphenyl)-3H-imidazol-4-yl]benzoic acid] reads 283 to 285 °C.
The result for `CC(C)c1ccc(-c2nc(-c3cccc(C(=O)O)c3)cs2)cc1` [Compound No. 312, 3-[2-(4-isopropylphenyl)thiazol-4-yl]-benzoic acid] reads 193 to 195 °C; that for `CC(C)c1ccc(-c2nc(-c3cccc(C(=O)O)c3)co2)cc1` [Compound No. 313, 3-[2-(4-isopropylphenyl)-oxazol-4-yl]benzoic acid], 236 to 239 °C.
Consider `CC(C)c1ccc(-c2coc(-c3cccc(C(=O)O)c3)c2C(=O)O)cc1` [Compound No. 314, 2-(3-carboxyphenyl)-4-(4-isopropylphenyl)furan-3-carboxylic acid], for which the melting point was 236 to 239 °C.
The result for `CC(C)c1ccc(-c2ncc(-c3cccc(C(=O)O)c3)o2)cc1` [Compound No. 320, 3-[2-(4-isopropylphenyl)-oxazol-5-yl]-benzoic acid] reads 193 to 195 °C; that for `CC(C)c1ccc(-c2ncc(-c3cccc(C(=O)O)c3)s2)cc1` [Compound No. 321, 3-[2-(4-isopropylphenyl)thiazol-5-yl]benzoic acid], 237 to 239 °C.
With `CC(C)c1ccc(-c2ccc(-c3cccc(C(=O)O)c3)o2)cc1` [Compound No. 322, 3-[5-(4-isopropylphenyl)furan-2-yl]benzoic acid], the melting point fell in the range of 172 to 176 °C.
The result for `CC(C)c1ccc(-c2nc(-c3cccc(C(=O)O)c3)ns2)cc1` [Compound No. 323, 3-[5-(4-isopropylphenyl)-[1,2,4]thiadiazol-3-yl]-benzoic acid] reads 165 to 167 °C; that for `CC(C)c1ccc(-c2nnc(-c3ccc(C(=O)O)cc3)s2)cc1` [Compound No. 324, 4-[5-(4-isopropylphenyl)-[1,3,4]thiadiazol-2-yl]benzoic acid], over 300 °C; that for `CC(C)c1ccc(-c2nsc(-c3cccc(C(=O)O)c3)n2)cc1` [Compound No. 326, 3-[3-(4-isopropylphenyl)-[1,2, 4]thiadiazol-5-yl]benzoic acid], 166 to 168 °C.
In turn, `CC(C)c1ccc(-c2csc(-c3cccc(C(=O)O)c3)c2)cc1` [Compound No. 327, 3-[4-(4-isopropylphenyl)-thiophen-2-yl]-benzoic acid] gave a melting point of 220 to 222 °C.
The result for `CC(C)c1ccc(-c2cc(-c3cccc(C(=O)O)c3)cs2)cc1` [Compound No. 348, 3-[5-(4-isopropylphenyl)thiophen-3-yl]benzoic acid] reads 208 to 209 °C.
The result for `CC(C)c1ccc(-c2ccc(-c3cccc(C(=O)O)c3)s2)cc1` [Compound No. 400, 3-[5-(4-isopropylphenyl)thiophen-2-yl]benzoic acid] reads 233 to 235 °C; that for `COc1ccc(-c2n[nH]c(-c3cccc(C(=O)O)c3)n2)cc1` [Compound No. 424, 3-[5-(4-methoxy-phenyl)-2H-[1,2,4]triazol-3-yl]-benzoic acid], 287 to 289 °C; that for `O=C(O)c1cccc(-c2cc(-c3ccc(Cl)cc3)no2)c1` [Compound No. 503, 3-[3-(4-chlorophenyl)isoxazol-5-yl]benzoic acid], 265 to 266 °C.
The result for `O=C(O)c1cccc(-c2nc(-c3ccccc3F)no2)c1` [Compound No. 506, 3-[3-(2-fluorophenyl)-[1,2,4]oxadiazole-5-yl] benzoic acid] reads 233 to 234 °C; that for `O=C(O)c1cccc(-c2cc(-c3ccc(F)cc3)[nH]n2)c1` [Compound No. 552, 3-[5-(4-fluorophenyl)-1H-pyrazol-3-yl]benzoic acid], 270.5 to 272 °C.

By melting point is commonly meant the temperature of the solid-liquid transition.
